Test results reported in ChEMBL document CHEMBL5143762, “Novel Coronavirus Main Protease Di- and Tripeptide Inhibitors for Treating COVID-19” (ACS Med Chem Lett, 2022).

What follows are compounds tested against Replicase polyprotein 1ab (Severe acute respiratory syndrome coronavirus 2, UniProt P0DTD1) (assay: Inhibition of recombinant SARS-CoV-2 Main protease using TAMRA-SITSAVLQSGFRKMK-DABCYL-OH fluorogenic peptide as substrate preincubated or 30 mins followed by substrate addition by FRET assay).
`CC(C)C(=O)N[C@H](C(=O)N1C[C@H]2[C@@H]([C@H]1C(=O)N[C@H](C#N)C[C@@H]1CCNC1=O)C2(C)C)C(C)(C)C` gave an IC50 of less than 100 nM.
Work on `COc1cccc2[nH]c(C(=O)N3C[C@@H]4CCC[C@@H]4[C@H]3C(=O)N[C@@H](C[C@@H]3CCNC3=O)C(=O)CCl)cc12` yielded an IC50 of 100 nM.
`CC(C)(C)[C@H](NC(=O)Cc1ccccc1)C(=O)N1C[C@H]2[C@@H]([C@H]1C(=O)N[C@H](C#N)C[C@@H]1CCNC1=O)C2(C)C` was tested, and the IC50 was less than 100 nM.
`COc1cccc2[nH]c(C(=O)N3C[C@@H]4CCC[C@@H]4[C@H]3C(=O)N[C@@H](C[C@@H]3CCNC3=O)C(=O)C(=O)NC3CCCCC3)cc12` showed an IC50 of less than 100 nM.
`CC(=O)N[C@H](C(=O)N1C[C@H]2[C@@H]([C@H]1C(=O)N[C@H](C#N)C[C@@H]1CCNC1=O)C2(C)C)C(C)(C)C` showed an IC50 of less than 100 nM.
For `COc1cccc2[nH]c(C(=O)N3C[C@@H]4CCC[C@@H]4[C@H]3C(=O)N[C@H](C=O)C[C@@H]3CCNC3=O)cc12`, the IC50 was less than 100 nM.
Work on `COc1cccc2[nH]c(C(=O)N3C[C@@H]4CCC[C@@H]4[C@H]3C(=O)N[C@@H](C[C@@H]3CCNC3=O)C(=O)COC(=O)c3c(Cl)cccc3Cl)cc12` yielded an IC50 of less than 100 nM.
With `COc1cccc2[nH]c(C(=O)N3C[C@@H]4CCC[C@@H]4[C@H]3C(=O)N[C@@H](C[C@@H]3CCNC3=O)C(=O)CO)cc12` the IC50 was 100 nM.
With `CC1(C)[C@@H]2[C@@H](C(=O)N[C@H](C#N)C[C@@H]3CCNC3=O)N(C(=O)c3cc4c(OC(F)F)cccc4[nH]3)C[C@@H]21` the IC50 was 100 nM.
`CCC(=O)N[C@H](C(=O)N1C[C@H]2[C@@H]([C@H]1C(=O)N[C@H](C#N)C[C@@H]1CCNC1=O)C2(C)C)C(C)(C)C` showed an IC50 of less than 100 nM.
`N#C[C@H](C[C@@H]1CCNC1=O)NC(=O)[C@@H]1CCCN1C(=O)c1cc2c(OC(F)F)cccc2[nH]1` was tested, and the IC50 was greater than 1000 nM.
For `CC(C)(C)[C@H](NC(=O)C1CCCCC1)C(=O)N1C[C@H]2[C@@H]([C@H]1C(=O)N[C@H](C#N)C[C@@H]1CCNC1=O)C2(C)C`, the IC50 was less than 100 nM.
`CC(C)(C)C(=O)N[C@H](C(=O)N1C[C@H]2[C@@H]([C@H]1C(=O)N[C@H](C#N)C[C@@H]1CCNC1=O)C2(C)C)C(C)(C)C` showed an IC50 of less than 100 nM.
